Results published in ChEMBL document CHEMBL5233210, “Pyrazolone structural motif in medicinal chemistry: Retrospect and prospect” (Eur J Med Chem, 2020).
pIC50: −log10 of the molar value. Converted amounts (≈) assume the structure as drawn.

Columns and labels:
Ehrlich [1] = test: Cytotoxicity against mouse Ehrlich ascites cells assessed as dead cells at 500 ug/ml; type: functional; details: dose 500 µg/ml
Ehrlich [2] = test: Cytotoxicity against mouse Ehrlich ascites cells assessed as dead cells at 100 ug/ml; type: functional; details: dose 100 µg/ml
Ehrlich [3] = test: Cytotoxicity against mouse Ehrlich ascites cells assessed as dead cells at 25 ug/ml; type: functional; details: dose 25 µg/ml
Bacillus subtilis [4] = test: Antibacterial activity against Bacillus subtilis; type: functional
Escherichia coli = test: Antibacterial activity against Escherichia coli; type: functional
Aspergillus niger = test: Antifungal activity against Aspergillus niger; type: functional
Ovis aries = organism: Ovis aries; test: Selectivity index, ratio of IC50 for ovine COX-1 to IC50 for ovine COX-2
Rattus norvegicus [5] = test: Antiinflammatory activity against rat assessed as inhibition of carrageenan-induced paw edema relative to control; type: functional; design: concentration or dose not given beside the values
Candida albicans [6] = test: Antifungal activity against Candida albicans; type: functional
Trichoderma viride = test: Antifungal activity against Trichoderma viride assessed as diameter of inhibition zone at 100 ppm; type: functional; details: read-out: DIZ
Salmonella paratyphi = test: Antibacterial activity against Salmonella paratyphi assessed as diameter of inhibition zone at 100 ppm; type: functional, Salmonella enterica subsp. enterica serovar Paratyphi A; details: Salmonella enterica, read-out: DIZ
Streptococcus mutans = test: Antibacterial activity against Streptococcus mutans assessed as diameter of inhibition zone at 100 ppm; type: functional; details: read-out: DIZ
Candida albicans [7] = test: Antifungal activity against Candida albicans assessed as diameter of inhibition zone at 100 ppm; type: functional; details: read-out: DIZ
Micrococcus luteus = test: Antibacterial activity against Micrococcus luteus assessed as diameter of inhibition zone at 100 ppm; type: functional; details: read-out: DIZ
Pseudomonas aeruginosa [8] = test: Antibacterial activity against Pseudomonas aeruginosa assessed as diameter of inhibition zone at 100 ppm; type: functional; details: read-out: DIZ
Bacillus subtilis [9] = test: Antibacterial activity against Bacillus subtilis assessed as diameter of inhibition zone at 100 ppm; type: functional; details: read-out: DIZ
Salmonella typhi = test: Antibacterial activity against Salmonella typhi assessed as diameter of inhibition zone at 100 ppm; type: functional, Salmonella enterica subsp. enterica serovar Typhi; details: Salmonella enterica, read-out: DIZ
Staphylococcus aureus = test: Antibacterial activity against Staphylococcus aureus; type: functional
Streptococcus pyogenes = test: Antibacterial activity against Streptococcus pyogenes; type: functional
Pseudomonas aeruginosa [10] = test: Antibacterial activity against Pseudomonas aeruginosa; type: functional
[11] = Antioxidant activity assessed as DPPH radical scavenging activity; type: functional
Aspergillus fumigatus = test: Antifungal activity against Aspergillus fumigatus; type: functional
[12] = target: T1, Prostaglandin G/H synthase 1 (Ovis aries, UniProt P05979); test: Inhibition of ovine COX-1
T1 sequence (P05979 whole entry): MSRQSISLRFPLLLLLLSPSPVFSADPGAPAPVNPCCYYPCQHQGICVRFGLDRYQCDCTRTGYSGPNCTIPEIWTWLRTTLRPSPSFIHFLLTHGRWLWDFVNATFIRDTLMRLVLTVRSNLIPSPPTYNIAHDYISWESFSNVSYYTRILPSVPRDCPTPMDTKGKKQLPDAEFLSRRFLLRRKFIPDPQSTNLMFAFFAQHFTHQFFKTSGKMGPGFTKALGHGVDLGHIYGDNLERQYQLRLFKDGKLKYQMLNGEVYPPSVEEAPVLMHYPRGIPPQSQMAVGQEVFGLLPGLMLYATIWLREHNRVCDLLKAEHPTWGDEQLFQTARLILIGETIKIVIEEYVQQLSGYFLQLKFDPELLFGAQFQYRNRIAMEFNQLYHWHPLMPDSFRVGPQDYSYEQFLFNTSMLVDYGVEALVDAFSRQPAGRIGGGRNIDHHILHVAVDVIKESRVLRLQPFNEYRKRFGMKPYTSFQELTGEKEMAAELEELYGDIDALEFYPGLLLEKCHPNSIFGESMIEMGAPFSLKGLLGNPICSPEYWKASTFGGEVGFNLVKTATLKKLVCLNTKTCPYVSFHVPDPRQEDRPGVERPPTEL

Rattus norvegicus [13] = test: Antiinflammatory activity against rat assessed as inhibition of carrageenan-induced paw edema; type: functional
MCF7 = test: Cytotoxicity against human MCF7 cells; type: functional, cell-based
[14] = Antioxidant activity assessed as ABTS radical scavenging activity; type: functional

Compound | MIC (Escherichia coli) [µg/mL] | MIC (Aspergillus niger) [µg/mL] | MIC (Candida albicans [6]) [µg/mL] | MIC (Staphylococcus aureus) [µg/mL] | MIC (Pseudomonas aeruginosa [10]) [µg/mL] | also measured
NC(=O)c1c(N/N=C2/C(=O)NN=C2N)sc2c1CCCC2 | – | – | – | – | – | Activity (Ehrlich [1]): 81%; Activity (Ehrlich [2]): 98.4%; Activity (Ehrlich [3]): 65%
O=C1/C(=C2/CN(c3ccccc3)N=C2c2ccccc2)C(c2ccccc2)=NN1c1ccccc1 | 4.08 (≈ 8.98 µM) | 5.1 (≈ 11.2 µM) | – | – | – | MIC (Bacillus subtilis [4]): 10 µg/mL (≈ 22 µM)
O=C1CC(Nc2ccccc2NC(=S)NC2CCCCC2)=NN1 | – | – | – | – | – | Ratio IC50 (Ovis aries): 4.73; Activity (Rattus norvegicus [5]): 56%
CC1=NN(C(=S)NN)C(=O)/C1=N/Nc1ccc(S(N)(=O)=O)cc1 | 125 (≈ 352 µM) | 5.8 (≈ 16.3 µM) | 11.6 (≈ 32.6 µM) | – | – | –
CC1=NN(c2ccccc2)C(=O)C1c1cc(-c2ccc(N(C)C)cc2)nc(N)n1 (stereo unspecified) | – | – | – | – | – | Activity (Rattus norvegicus [5]): 62%
Cc1[nH]n(-c2ccccc2)c(=O)c1C(c1ccc(Br)c(F)c1)c1c(O)ccc2ccccc12 (stereo unspecified) | – | – | – | – | – | zone of inhibition at 100 µg/mL (Trichoderma viride): 10.5 mm; zone of inhibition at 100 µg/mL (Salmonella paratyphi): 19.5 mm; zone of inhibition at 100 µg/mL (Streptococcus mutans): 18 mm; zone of inhibition at 100 µg/mL (Candida albicans [7]): 18.5 mm; zone of inhibition at 100 µg/mL (Micrococcus luteus): 16.5 mm; zone of inhibition at 100 µg/mL (Pseudomonas aeruginosa [8]): 14.5 mm; zone of inhibition at 100 µg/mL (Bacillus subtilis [9]): 19.5 mm; zone of inhibition at 100 µg/mL (Salmonella typhi): 20.5 mm
O=C1/C(=C\c2coc3ccccc3c2=O)C(C(F)(F)F)=NN1c1c(F)c(F)cc(F)c1F | 500 (≈ 1100 µM) | > 1000 | 250 (≈ 548 µM) | 62.5 (≈ 137 µM) | 500 (≈ 1100 µM) | MIC (Bacillus subtilis [4]): 62.5 µg/mL (≈ 137 µM); MIC (Streptococcus pyogenes): 200 µg/mL (≈ 438 µM)
Cc1c(/N=C/c2cc(O)ccc2O)c(=O)n(-c2ccccc2)n1C | – | – | – | – | – | pIC50 [11]: 4.77
CC(=O)OC1CC[C@@]2(C)C(C1)/C(=C1/C(=O)NN=C1N)C[C@H]1[C@@H]3CC[C@H]([C@H](C)CCCC(C)C)[C@@]3(C)CC[C@@H]12 (stereo partly specified) | 50 (≈ 95.1 µM) | – | 25 (≈ 47.5 µM) | – | 50 (≈ 95.1 µM) | MIC (Aspergillus fumigatus): 50 µg/mL (≈ 95.1 µM); MIC (Streptococcus pyogenes): 50 µg/mL (≈ 95.1 µM)
Cc1c(/N=C/c2ccc(O)cc2O)c(=O)n(-c2ccccc2)n1C | – | – | – | – | – | pIC50 [11]: 4.70
CC1=NN(C(=S)NN)C(=O)/C1=N/Nc1ccc(Cl)cc1 | 188 (≈ 603 µM) | 5.8 (≈ 18.7 µM) | 15.6 (≈ 50.2 µM) | – | – | –
COc1ccc(N/N=C2\C(=O)N(CC(=O)n3[nH]c(N)cc3=O)N=C2C(F)(F)F)cc1 | 15.3 (≈ 35.9 µM) | 5.3 (≈ 12.5 µM) | 9.22 (≈ 21.7 µM) | 8.02 (≈ 18.9 µM) | 9.58 (≈ 22.5 µM) | –
CCOC(=O)c1c(N/N=C2/C(=O)NN=C2N)sc2c1CCCC2 | – | – | – | – | – | Activity (Ehrlich [1]): 79%; Activity (Ehrlich [2]): 98.1%; Activity (Ehrlich [3]): 60%
C/C(=N\c1c(C)n(C)n(-c2ccccc2)c1=O)c1ccc(O)cc1O | – | – | – | – | – | pIC50 [11]: 4.72
CCOc1ccc(N/N=C2\C(=O)N(CC(=O)n3[nH]c(N)cc3=O)N=C2C(F)(F)F)cc1 | 26.7 (≈ 60.8 µM) | 6.28 (≈ 14.3 µM) | 9.08 (≈ 20.7 µM) | 12 (≈ 27.4 µM) | 11.9 (≈ 27.1 µM) | –
NC1=NNC(=O)C1(CCS(=O)(=O)c1ccccc1)CCS(=O)(=O)c1ccccc1 | – | 100 (≈ 230 µM) | – | 100 (≈ 230 µM) | – | MIC (Bacillus subtilis [4]): 100 µg/mL (≈ 230 µM)
Cc1[nH]n(-c2ccccc2)c(=O)c1CNc1ccc(S(N)(=O)=O)cc1 | – | – | – | – | – | pIC50 [12]: < 4.00; Ratio IC50 (Ovis aries): > 100; ED50 (Rattus norvegicus [13]): 109 mg/kg; Activity (Rattus norvegicus [5]): 92%
Cc1c(-n2cc3c(N)nnc-3n(-c3ccccc3)/c2=N\N)c(=O)n(-c2ccccc2)n1C | – | – | – | – | – | pIC50 (MCF7): 4.35
CCCC1=NN(c2c(F)c(F)cc(F)c2F)C(=O)/C1=C\c1cn(-c2ccccc2)nc1-c1ccc(Cl)cc1 | 62.5 (≈ 116 µM) | > 1000 | 1000 (≈ 1860 µM) | 100 (≈ 186 µM) | 200 (≈ 371 µM) | MIC (Bacillus subtilis [4]): 100 µg/mL (≈ 186 µM); MIC (Streptococcus pyogenes): 100 µg/mL (≈ 186 µM)
Cc1c(-n2cc(C#N)c(=O)n(-c3ccc(I)cc3)c2=S)c(=O)n(-c2ccccc2)n1C | – | – | – | – | – | pIC50 (MCF7): 4.51
Nc1cc(=O)n(C(=O)CN2N=C(C(F)(F)F)/C(=N/Nc3ccc(Cl)cc3)C2=O)[nH]1 | 12.7 (≈ 29.5 µM) | 6.8 (≈ 15.8 µM) | 6.18 (≈ 14.4 µM) | 7.3 (≈ 17 µM) | 7.39 (≈ 17.2 µM) | –
CC1=NN(c2nc(-c3ccccc3)cs2)C(=O)C1 | – | – | – | – | – | Activity [14]: 85.7%
COc1ccc(-c2cc(C3C(=O)N(c4ccccc4)N=C3C)nc(N)n2)cc1 (stereo unspecified) | – | – | – | – | – | Activity (Rattus norvegicus [5]): 61.02%
Cc1[nH]n(-c2ccccc2)c(=O)c1CNC(=S)Nc1ccccc1 | – | – | – | – | – | Ratio IC50 (Ovis aries): 400; ED50 (Rattus norvegicus [13]): 102 mg/kg; Activity (Rattus norvegicus [5]): 91%
CCCC1=NN(c2c(F)c(F)cc(F)c2F)C(=O)/C1=C\c1cn(-c2ccccc2)nc1-c1cccs1 | 200 (≈ 392 µM) | > 1000 | > 1000 | 125 (≈ 245 µM) | 250 (≈ 490 µM) | MIC (Bacillus subtilis [4]): 125 µg/mL (≈ 245 µM); MIC (Streptococcus pyogenes): 62.5 µg/mL (≈ 122 µM)
O=C1/C(=C\c2coc3ccc(Cl)cc3c2=O)C(C(F)(F)F)=NN1c1c(F)c(F)cc(F)c1F | 125 (≈ 255 µM) | 500 (≈ 1020 µM) | 1000 (≈ 2040 µM) | 250 (≈ 509 µM) | 62.5 (≈ 127 µM) | MIC (Bacillus subtilis [4]): 250 µg/mL (≈ 509 µM); MIC (Streptococcus pyogenes): 200 µg/mL (≈ 408 µM)
